{"source": "patent US8653049B2", "about": "“Normuramyl glycopeptide compounds” (priority 2008, dated 2014)", "key": {"[1]": {"conditions": "rabbits, liposomal preparations s.c. 100 nmol/kg, 3 rabbits per group; passes if below 1.1° C.", "protocol": "The test was conducted in an authorised laboratory, ITEST plus s.r.o., Bilé Vchýnice 10, 533 13 Vápno u Prelouce, Czech Republic, according to guide-lines CL 2005.\nRabbits (New Zeeland albino, 4-6 kg, 3 animals per group) were used for testing.\nLiposomal preparations of muramyl glycopeptide derivatives were administered s.c. (100 nmol/kg). Empty liposomes were used as negative control and the liposomal as well as the free form of muramyl dipeptide (MDP) (25 μg/kg, corresponding to 50.7 nmol/kg) served as positive control. Temperature was measured in 1, 2, 3, 4,6 and 24 hour intervals.\nEmpty liposomes were used as negative control; and liposomal as well as free muramyl dipeptide (MDP) (50.7 nmol/kg) served as positive control. B30-norAbu-MDP (MT01, structure on page 5) served as additional control. Temperature was measured in 1, 2, 3, 4, 6 and 24 h intervals. The preparation passed the test if the Sum of ΔTmax remained below 1.1° C. (3 rabbits per group)"}, "[2]": {"tested_on": "tetanus toxoid (TaT) specific IgG antibodies", "set-up": "species or system BALB/c mice", "conditions": "mouse, in vivo, sc"}, "[3]": {"tested_on": "NK sensitive K562 cell line", "test": "NK cell cytotoxicity of human PBMC, 51Cr-release against K562", "assay_type": "cell-based", "conditions": "range 0.1 μM-100 μM; FIG. 28", "protocol": "Ex vivo effects of test compounds on NK cells were evaluated on human peripheral blood mononuclear cells (PBMC). The NK cell cytotoxicity of healthy donors in the presence or absence of test compounds was measured in standard 4 hrs ^51Cr-release assay against NK sensitive K562 cell line in effector (PBMC) to target (K562) ratio 16:1. Test compounds were added at a concentration of 10^−7 mol/ml.\nTesting of compounds 23, 24, 32, 33, 40 and 41 for their capacity to induce cell-mediated cytotoxicity of human eripheral blood mononuclear cells (PBMCs) is shown in FIGS. 27 and 28. All donors were healthy. […] The cytotoxicity of untreated controls (30.5%) was renormalized to 100%."}, "[4]": {"tested_on": "myelin basic protein induced EAE", "test": "Experimental allergic encephalomyelitis (EAE), Th1 adjuvant activity", "assay_type": "in vivo, guinea pigs"}, "[5]": {"tested_on": "GM-CFC progenitors in bone marrow", "test": "GM-CFC recovery, test compounds after sub-lethal irradiation", "assay_type": "in vivo, ICR/CD-1 mice", "conditions": "s.c. 100 nmol 24 h after 6 Gy, FIG. 36", "protocol": "Institite of Cancer Research (ICR/CD-1) mice (female, age of 3 months, 3-4 per group) were stimulated by s.c. administration of test compounds (volume of 200 μl, 100 nmol per dose) 24 h before sublethal γ-irradiation (6 Gy, ^60Co γray source Chisostat, Chirana Ltd., Czech Republic, at a dose of 0.285 Gy/min.). Mice were sacrified at day 13 and recovery of GM-CFC in femour was assayed by counting of colonies (CFC) formed after cultivation in medium. Non-irradiated mice were used as control for normal GM-CFC count in femour. PBS and empty liposomes were used as controls for spontaneous recovery. Liposomal MDP was used as reference standard.\nThe following parameters of hemopoiesis were evaluated: • a) Blood leukocyte counts and bone marrow cellularity. Blood leukocytes (samples of blood drawn from an incision of the tail vein) and nucleated cell elements of the femoral bone marrow (femoral diaphyses flushed with saline) were estimated by means of Coulter Counter (Model ZN, Coulter Electronics). • b) Colony-forming cells in spleen. Endogenous spleen colony-forming units (E-CFUs) were measured on day 9 post the whole-body irradiation with 6.5 Gy (5 mice per group) according to Till and McCulloch. • c) GM-CFC progenitors in bone marrow. Femoral bone marrow cells were obtained from mice by flushing the femour with sterile IMDM medium. Harvested cells were calculated and diluted to 1.5×10^5 cells/ml and plated in triplicate in a semisolid environment created by plasma clot (Iscovess modification of Dulbecco's medium, 20% of fetal calf serum, 10% of colony-stimulating factor, 10% of citrate plasma, and CaCl2 1.5 mg/ml). The cultures were incubated for 7 days at 37° C. in 5% CO2. Colonies of at least 50 cells were scored at 40× magnification.\nThe method is exactly as described above except that the test compounds (volume of 200 μl, 100 nmol per dose) were administered 24 h after sublethal γ-irradiation (6 Gy)."}, "Salmonella enteritidis": {"tested_on": "Salmonella enteritidis", "test": "Stimulation of innate immunity against Salmonella Enteritidis", "conditions": "liposomal, 20 nmol per dose p.o. 72 and 24 h before infection (LD50); 5 mice"}, "[6]": {"tested_on": "Friend leukemia virus (FLV)", "test": "Friend leukemia virus infection: survival, TER-119+ cells, spleen", "conditions": "for survival, early phase (day 43): saline control 82%"}}}
{"compound": "CCCCCCCCCCCCCCCCCC(=O)N[C@H]1[C@H](O[C@H]2[C@H](OCC(=O)N[C@@H](CC)C(=O)N[C@H](CCC(=O)O)C(N)=O)[C@@H](NC(C)=O)C(O)O[C@@H]2CO)O[C@H](CO)[C@@H](O)[C@@H]1O", "note": "(stereo partly drawn) [Compound 23, N-[2-O-(2-deoxy-2-stearoylamino-β-D-glucopyranosyl-(1→4)-2-acetamido-2,3-dideoxy-α-D-glucopyranosid-3-yl)-glycoloyl]-L-α-aminobutanoyl-D-isoglutamine]", "values": [{"measurement": "+ΔTmax (Sum of ΔTmax)", "setting": "[1]", "value": 0.7, "unit": "°C"}, {"measurement": "anti-TaT antibody response", "setting": "[2]", "value": "did not show a significant antibody response"}, {"measurement": "anti-TaT antibody response (adjuvant activity)", "setting": "[2]", "value": "Strong adjuvant activity"}, {"measurement": "dose response of NK cell activity", "setting": "[3]", "value": "positive dose response"}, {"measurement": "Positive animals (%) (incidence of EAE)", "setting": "[4]; 50 μg myelin basic protein + 1 mg test compound in FIA, footpads, up to day 21, FCA positive control", "value": 86, "unit": "%"}, {"measurement": "Th1 stimulation (EAE)", "setting": "[4]; guinea pigs sensitized with bovine MBP in IFA + compound, FIG. 31", "value": "superior to MDP and GMDP as Th1 adjuvants"}, {"measurement": "GM-CFC progenitor cells in bone marrow", "setting": "[5]", "value": "strongest effect"}, {"measurement": "GM-CFC progenitor cells in bone marrow", "setting": "[5]; listed as compound 23", "value": "strongest performers"}, {"measurement": "Day 6 Intest.: clear/infected/dead", "setting": "Salmonella enteritidis", "value": "2/3/0"}, {"measurement": "Day 6 Liver: clear/infected/dead", "setting": "Salmonella enteritidis", "value": "0/5/0"}, {"measurement": "Day 6 Lungs: clear/infected/dead", "setting": "Salmonella enteritidis", "value": "1/4/0"}, {"measurement": "Day 6 Spleen: clear/infected/dead", "setting": "Salmonella enteritidis", "value": "0/5/0"}, {"measurement": "Day 12 Intest.: clear/infected/dead", "setting": "Salmonella enteritidis", "value": "1/2/2"}, {"measurement": "Day 12 Liver: clear/infected/dead", "setting": "Salmonella enteritidis", "value": "1/2/2"}, {"measurement": "Day 12 Lungs: clear/infected/dead", "setting": "Salmonella enteritidis", "value": "1/2/2"}, {"measurement": "Day 12 Spleen: clear/infected/dead", "setting": "Salmonella enteritidis", "value": "1/2/2"}, {"measurement": "survival, late phase (days 55 and 59), long-term", "setting": "[6]; 10 μmol i.p., non-liposomal, control 0%, FIG. 23", "value": "clearly worse at day 55"}, {"measurement": "survival, early phase (day 43)", "setting": "[6]; 10 μmol i.p., non-liposomal, FIG. 23", "value": "survival not worse than control at day 43"}, {"measurement": "survival, early phase (day 43)", "setting": "[6]; 10 μmol i.p., non-liposomal, FIG. 23, listed as compound 23", "value": "slightly better than saline control"}, {"measurement": "% of survivors on day 45", "setting": "[6]; 52 infected mice, non-liposomal compound i.p. day −10 and −3, infected non-treated 23", "value": 45, "unit": "%"}, {"measurement": "clonal expansion of TER-119+ erythroleukaemia cells in spleen", "setting": "[6]; day 16, FIG. 24", "value": "positive effect on clonal expansion"}, {"measurement": "spleen size (weight)", "setting": "[6]; day 16, FIG. 25", "value": "increased spleen size"}]}
